Patent US8580812B2, “Heteroaryl amide analogues as P2X7 antagonists” (H. Lundbeck A/S, priority 2007, dated 2013)

Molecular target: T1, P2X7 (Homo sapiens, UniProt Q99572)
T1 construct: host or cells: SH-SY5Y
T1 sequence (Q99572 1-595): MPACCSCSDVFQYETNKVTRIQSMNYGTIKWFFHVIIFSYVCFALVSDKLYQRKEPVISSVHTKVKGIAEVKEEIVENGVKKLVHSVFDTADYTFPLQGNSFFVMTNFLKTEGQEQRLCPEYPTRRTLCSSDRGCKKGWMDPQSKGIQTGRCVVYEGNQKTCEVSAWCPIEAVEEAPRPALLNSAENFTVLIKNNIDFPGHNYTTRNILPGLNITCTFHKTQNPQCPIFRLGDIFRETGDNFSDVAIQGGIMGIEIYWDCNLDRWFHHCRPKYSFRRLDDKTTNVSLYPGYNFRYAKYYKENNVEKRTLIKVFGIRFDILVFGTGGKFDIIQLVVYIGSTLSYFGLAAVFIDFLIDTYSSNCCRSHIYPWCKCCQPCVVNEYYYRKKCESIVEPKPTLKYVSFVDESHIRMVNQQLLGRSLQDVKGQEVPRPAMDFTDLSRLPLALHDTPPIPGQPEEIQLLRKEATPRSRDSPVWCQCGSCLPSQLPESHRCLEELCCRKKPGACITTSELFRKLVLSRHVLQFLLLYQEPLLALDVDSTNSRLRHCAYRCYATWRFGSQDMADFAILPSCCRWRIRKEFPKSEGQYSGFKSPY
Test: High Throughput P2X7 Calcium Mobilization Assay (Example 4A), antagonist activity
Format: cell-based
Details: SH-SY5Y cells, 50% decrease in fluorescence response of cells exposed to 80 μM BzATP
Procedure, shortened: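 SH-SY5Y cells loaded with Fluo-4 AM were preincubated 1 h at room temperature with compound (typically 1–2500 nM) in sucrose/HEPES buffer, pH 7.4, then challenged with 80 μM BzATP (final, about EC50). Peak fluorescence over 2 min gave percent inhibition relative to agonist-only wells, and IC50 came from a Hill-equation fit.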

Structure (SMILES) | IC50 [nM]
O=C(O)CC(Cc1ccccc1)c1cc2c(C(=O)NCC34CC5CC(CC(C5)C3)C4)cccn2n1 (centres unmarked) [Compound 107, 3-{4-[(adamantan-1-ylmethyl)carbamoyl]pyrazolo[1,5-a]pyridin-2-yl}-4-phenylbutanoic acid] | ≤ 2000
O=C(O)c1ccc(-c2cc3c(C(=O)NCC45CC6CC(CC(C6)C4)C5)cccn3c2)cc1 [Compound 108, 4-{8-[(adamantan-1-ylmethyl)carbamoyl]indolizin-2-yl}benzoic acid] | ≤ 2000
N#Cc1ccc(C(=O)c2ccc3c(C(=O)NCC45CC6CC(CC(C6)C4)C5)cccn23)cc1 [Compound 109, N-(adamantan-1-ylmethyl)-3-(4-cyanobenzoyl)indolizine-8-carboxamide] | ≤ 2000
NC(=O)c1ccc(C(=O)c2ccc3c(C(=O)NCC45CC6CC(CC(C6)C4)C5)cccn23)cc1 [Compound 110, N-(adamantan-1-ylmethyl)-3-(4-carbamoylbenzoyl) indolizine-8-carboxamide] | ≤ 2000
NC(=O)c1ccc(-c2cc3c(C(=O)NCC45CC6CC(CC(C6)C4)C5)cccn3c2)cc1 [Compound 112, N-(adamantan-1-ylmethyl)-2-(4-carbamoylphenyl) indolizine-8-carboxamide] | ≤ 2000
